Experimental data taken from patent publication US8044050B2, “Imidazo[1,2-a]azines and their use as pharmaceuticals” (Sanofi-Aventis, priority 2007, dated 2011).

Test system: eNOS promoter
Experiment: Activation of eNOS transcription (eNOS promoter-luciferase reporter gene assay)
Assay type: cell-based
Details: human endothelial cell line stably transfected with eNOS promoter-luciferase construct; 18 h incubation; determined graphically; read-out: EC50 values of transcription induction ratios (TIR)
Experimental: Activation of eNOS transcription was measured as described in detail by Li et al., “Activation of protein kinase C alpha and/or epsilon enhances transcription of the human endothelial nitric oxide synthase gene”, Mol. Pharmacol. 53 (1998) 630. Briefly, a 3.5 kB long fragment 5′ of the starting codon of the eNOS gene was cloned, sequenced and cloned in firefly luciferase expression plasmids to monitor activation of the eNOS promoter by reporter gene activity. A human endothelial cell line stable transfected and expressing this promoter-reporter construct was used for compound testing. Cells were incubated for 18 h with the compounds.
All compounds were dissolved in sterile dimethyl sulfoxide (DMSO). A final concentration of 0.5% DMSO in complete medium was allowed. Induction of reporter gene expression in these cells was measured using a standard luciferase assay system (Promega, Cat. No. E150) according to the manufacturer's instructions. Luciferase induction in cells incubated with compounds were compared to those incubated with solvent alone. The ratio of both activities (transcription induction ratio, TIR) was plotted as a function of compound concentration. […] EC50 values of transcription induction ratios as a function of compound concentration were determined graphically.

Compound | EC50 [nM]
Nc1ccc2nc(-c3ccc(F)cc3)cn2n1 [Example 7, 2-(4-Fluoro-phenyl)-imidazo[1,2-b]pyridazin-6-ylamine] | < 500
Fc1ccc(-c2cn3nc(Cl)ccc3n2)cc1 [Example 8, 6-Chloro-2-(4-fluoro-phenyl)-imidazo[1,2-b]pyridazine] | < 500
